The record followed here is publication PMC7287670, “Tyrosinase Inhibition and Kinetic Details of Puerol A Having But-2-Enolide Structure from Amorpha fruticosa” (Molecules, 2020).

The target of data set [1] is T1, Mushroom tyrosinase (monophenolase) (Agaricus bisporus, UniProt C7FF04).
T1 construct: purchased Sigma-Aldrich Co., St. Louis, MO, USA
The data set is described as follows: Mushroom tyrosinase monophenolase inhibition (L-tyrosine as substrate, 475 nm). In kind it is biochemical. To be noted: for IC50: substrate L-tyrosine; for L-Tyrosine Inhibition Mode: Lineweaver–Burk plot. As to the method: (§1) Mushroom tyrosinase (EC 1. 14. 18. 1) (Sigma-Aldrich Co., St. Louis, MO, USA) activity was performed in accordance with the previously described method with subtle modification, using L-tyrosine and L-3,4-dihydroxylphenylalanine (L-DOPA) for monophenolase and diphenolase as substrates, respectively. Two hundred sixty units/mL of the tyrosinase stock solution was prepared at optimum pH 6.8 (0.05 M phosphate buffer). The inhibitors were initially dissolved in DMSO and diluted to several concentrations. […] Then, 10 μL of the enzyme was added to the mixture. Subsequent absorbance of DOPA chrome formation was recorded at 475 nm by means of an UV-Vis spectrophotometer (SpectraMax M3, Molecular Devices, San Jose, CA, USA) in a 96-well microplate at 30 °C. Three separate determinations were conducted for each assay.
(§2) The characteristic of tyrosinase inhibition was represented by Lineweaver−Burk double-reciprocal-plot and Dixon plot at specified concentrations of the substrates and inhibitors, respectively.

In data set [2] the target is T2, Mushroom tyrosinase (diphenolase) (Agaricus bisporus, UniProt C7FF04).
T2 construct: purchased Sigma-Aldrich Co., St. Louis, MO, USA
The data set can be described thus: Mushroom tyrosinase diphenolase inhibition (L-DOPA as substrate, 475 nm). In kind it is biochemical. To be noted: for IC50: substrate L-DOPA. As to the method:
as §1, §2

Data set [3] deals with T3, tyrosinase (monophenolase) (Agaricus bisporus, UniProt C7FF04).
T3 construct: purchased Sigma-Aldrich Co., St. Louis, MO, USA
The data set can be described thus: Time-dependent assays and progress curves (slow-binding kinetics, lag phase). In kind it is biochemical, mushroom. To be noted: for Type of inhibitor (time-dependent inhibition): L-tyrosine, preincubation and progress curves. As to the method:
The assays were carried out using tyrosinase (260 units) and L-tyrosine as a substrate of monophenolase in 0.25 M phosphate buffer (pH 6.8) at 30 °C. The enzyme activity was recorded sequentially for 30 min by a UV spectrophotometer. To evaluate the time-dependent inhibition and the kinetic parameters of tyrosinase, progress curves with 30 s intervals were measured at different concentrations of the inhibitor and substrate. The data were through the use of Sigma Plot (SPCC Inc., Chicago, IL, USA) as a nonlinear regression program to provide the respective parameters for each curve; A (absorbance at 475 nm), vi (initial rate), vss (steady-state rate), kobs (apparent first-order rate constant for the transition from vi to vss), and Kiapp (apparent Ki) in accordance with the following Equations (2)–(5). (2) A=vsst+vi − vss1 −exp−kobst/kobs (3) v/v0=exp (−kobst) (4) kobs=k4 (1+[I]/Kiapp) (5) Kiapp=k4/k3
The value of −kobs was estimated by a slope of the straight line from the plot of the natural log of the residual enzyme activity vs. the preincubation time. The plot of kobs vs. the concentration of inhibitors gave the values of k3, k4, and Kiapp on the basis of Morrison and Walsh’s method.

For data set [4], the target named is T4, tyrosinase (Agaricus bisporus, UniProt C7FF04).
T4 construct: purchased Sigma-Aldrich Co., St. Louis, MO, USA
The data set can be described thus: HPLC analysis of tyrosinase inhibition with N-acetyl-L-tyrosine as substrate. In kind it is biochemical. To be noted: HPLC at 275 nm. As to the method:
The HPLC analysis of tyrosinase inhibition was carried out by giving minor alterations in the previous procedure with N-acetyl-L-tyrosine as a substrate. The 4.5 mM of the substrate was prepared in the 50 mM phosphate buffer (pH 6.8). Then, 670 units/mL tyrosinase (Sigma-Aldrich Co., St. Louis, MO, USA) solution and several concentrations of the inhibitor solution were arranged. The N-acetyl-L-tyrosine was observed on 275 nm with 4.6 min of tR by eluting the mobile phase consisting of A (H2O) and B (acetonitrile, ACN), with the following isocratic condition: 0–8 min and A/B = 90:10 (v/v). After 20 μL of the sample solution was subjected to the HPLC (Pack ODS-AQ C18 column, YMC) system, the reactions were measured every 15 min. All procedures were carried out at room temperature.

The target of data set [5] is T4, tyrosinase. The data set can be described thus: Fluorescence quenching measurement of binding affinity to tyrosinase. As to the method:
To measure fluorescence from the tyrosinase enzyme, 10 μL of 260 unit/mL enzyme solution with 165 μL of phosphate buffer (0.05 M) were added into 96-well black immunoplates. Afterward, 5 μL of various concentrations (2.5–20 μM) of inhibitor was added into each well. All fluorescence spectra were obtained by a SpectraMax M3 spectrophotometer (Molecular Devices, San Jose, CA, USA). The spectra were measured from 300 to 400 nm with emission slits regulated to 2.0 nm, and the excitation wavelength was 265 nm. The Stern–Volmer quenching constant (KSV) was estimated using Equation (6). All experiments were carried out in triplicate, and the mean values were calculated. (6) […] where F0 and F are the fluorescence intensities in the absence and presence of quencher (Q). KSV is the Stern–Volmer quenching constant [L M^−1]. For static quenching, the correlation between the fluorescence intensity and the concentration of the quencher for the series of reactions can be expressed by Equation (7). (7) log[(F0 − F)/F]=logKA+nlog[Q]f
F0 and F are the fluorescence intensities in the absence and presence of inhibitor; KA is the binding constant; n is the number of binding sites of the enzyme; Qf is the concentration of inhibitor [24].

The subject of data set [6] is B16F10 mouse melanoma cells. The data set is described as follows: Melanin content in α-MSH-stimulated B16F10 melanoma cells. It counts as cell-based. To be noted: B16 cells, 48 h in the presence of α-MSH, read-out: Melanin Synthesis IC50. As to the method: (§3) The B16F10 mouse melanoma cell (American Type of Culture Collection, VA, USA) were cultured as previously reported. Briefly, the cells were incubated in DMEM containing 10% fetal bovine serum and 1% penicillin/streptomycin (Sigma–Aldrich, St. Louis, MO, USA) at 37 °C in a 5% CO2 humidified incubator.
For the analysis of melanin content accumulated in the cytosol, B16F10 mouse melanoma cells were seeded on to six-well plates at a density of 1 × 10^5 cells per well, and cultured for 24 h. Then, the cells were treated with 1 μM of α-MSH (Sigma–Aldrich, St. Louis, MO, USA) in the presence or absence of different concentrations of compound 1. Thereafter, the cells were collected using trypsin-EDTA (Lonza, Walkersville, MD, USA) and dissolved in 1 N NaOH, including 10% DMSO at 65 °C for 24 h. The melanin content was determined at 415 nm by a Bio-Rad microplate reader.

Data set [7] deals with B16F10 mouse melanoma cells. The data set is described as follows: L-DOPA oxidation (cellular tyrosinase) in α-MSH-treated B16F10 melanoma cells. It counts as cell-based. To be noted: B16 cells, 48 h in the presence of α-MSH. As to the method: as §3
B16F10 mouse melanoma cells were seeded on to 6-well plates at a density of 1 × 10^5 cells per well and cultured for 24 h. Then, the cells were treated with α-MSH (1 μM) in the presence or absence of different concentrations of compound 1, followed by incubation for 48 h. The incubated cells were collected and dissolved with 1% Triton X-100 solution for 1 h on ice. Then, the cells were cultured for 4 h with 100 μL (2 mg/mL) L-DOPA in a 5% CO2 humidifying incubator at 37 °C condition. After that, by using a microplate reader (Bio-Rad), absorbance at 490 nm was measured.

Data set [8] has as its system B16F10 mouse melanoma cells. The data set can be described thus: Cell viability assay (MTT) in B16F10 melanoma cells. In kind it is cell-based. To be noted: B16 cells, 48 h. As to the method:
as §3
The cell viability assay of the B16F10 mouse melanoma cells were conducted with subtle variation in previous methods. The cells were incubated in 96-well plates overnight. […] After incubation, 5 μg/mL of MTT solution was added to the each well and the cells were incubated for 3 h. After the medium was removed, the cells were treated with dimethyl sulfoxide (DMSO) and cultured at room temperature for 20 min. The absorbance at 595 nm was measured on a Bio-Rad microplate reader (Hercules, CA, USA).

[9] abbreviates: pH 6.8, 30 °C, read-out: L-Tyrosine IC50 Value (monophenolase).
Where [10] appears, read: pH 6.8, 30 °C, read-out: L-DOPA IC50 Value (diphenolase).
The mark [11] stands for this setting: slow-binding, L-tyrosine as substrate.

Read-outs that look alike come from different tables or passages of the source.

T2 sequence (C7FF04 1-392): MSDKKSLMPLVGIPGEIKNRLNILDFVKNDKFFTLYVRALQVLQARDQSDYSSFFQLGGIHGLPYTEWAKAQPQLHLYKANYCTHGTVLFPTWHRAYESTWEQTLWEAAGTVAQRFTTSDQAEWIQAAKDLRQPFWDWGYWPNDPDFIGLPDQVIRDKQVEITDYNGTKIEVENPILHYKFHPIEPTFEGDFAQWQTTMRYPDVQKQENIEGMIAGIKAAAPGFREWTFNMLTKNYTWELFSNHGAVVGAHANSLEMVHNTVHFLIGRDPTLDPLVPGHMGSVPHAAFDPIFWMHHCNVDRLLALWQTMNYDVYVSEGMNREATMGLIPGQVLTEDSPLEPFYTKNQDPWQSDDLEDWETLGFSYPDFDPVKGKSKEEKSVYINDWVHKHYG
T4 sequence (C7FF04 1-392): as above
T1 sequence (C7FF04 1-392): as above
T3 sequence (C7FF04 1-392): as above

Take `O=C1C=C(c2ccc(O)cc2O[C@@H]2O[C@H](CO)[C@@H](O)[C@H](O)[C@H]2O)C(Cc2ccc(O)cc2)O1` (stereo partly shown) [Compound 2, Kuzubutenolide A]: the IC50 (as a rule, the midpoint of a concentration-inhibition curve) was above 200 µM in data set [1] (setting [9]), 1500 µM in data set [1] (read-out: IC50 monophenolase), above 200 µM in data set [2] (setting [10]) and 1900 µM in data set [2] (read-out: IC50 diphenolase).

As for `O=C1C=C(c2ccc(O)cc2O)C(Cc2ccc(O)cc2)O1` (stereo not shown) [Compound 1, Puerol A], in data set [1] (initial velocity vs tyrosinase and inhibitor concentrations), the Reversibility of inhibition result is listed as “reversible inhibitor”. Also, the Ki came to 0.87 µM in data set [1] (monophenolase, Dixon plot); 1.95 µM in data set [2] (diphenolase, Dixon plot); 0.107 µM in data set [3] (Kiapp = k4/k3). For the same molecule, the “L-Tyrosine Inhibition Mode” value in data set [1] (monophenolase) was “Competitive”; in data set [1] (monophenolase, listed as puerol A), “competitively”. Besides, the IC50 in data set [1] (setting [9]) is 2.2 ± 0.2 µM; in data set [2] (setting [10]), 3.88 ± 0.3 µM; in data set [6], 11.4 ± 1.2 µM; in data set [7] it was 23.9 ± 1.4 µM. Moreover, the “L-DOPA Inhibition Mode” value in data set [2] (diphenolase, Lineweaver–Burk plot) is “competitive inhibition mode”. The “Type of inhibitor (time-dependent inhibition)” value in data set [3] is “simple, reversible, slow-binding inhibitor”; in data set [3] (listed as Puerol A) it was “reversible, competitive, simple slow-binding inhibitor”; in data set [3] (listed as puerol A) it was “competitive inhibitor and reversible, simple slow-binding inhibitor”. In data set [3] (inhibitor 0.5–8.0 μM, 60 s without inhibitor), the “lag phase of L-tyrosine oxidation” value was “up to 600 s”. For the same molecule, the k3 in data set [3] (setting [11]) turned out to be 465 M⁻¹ s⁻¹. In data set [3] (setting [11]), this molecule gave a k4 of 0.003 min⁻¹. Further, the “oxidation of N-acetyl-L-tyrosine blocked” value on tyrosinase [4] (5 μM) is on record as 56%; at tyrosinase [4] (10 μM) it was 86%; on tyrosinase [4] (20 μM, listed as Puerol A), “completely inhibited”; at tyrosinase [4] (20 μM, listed as puerol A), 95%. In addition, the “n (number of binding sites)” value on tyrosinase [5] (from log[(F0 − F)/F] plot) is recorded as “one”. Further, at tyrosinase [5] (inhibitor 2.5–20 μM, excitation 265 nm, emission 300–400 nm), the “KSV (Stern–Volmer quenching constant)” value stood at 145000 L/mol. The “Cytotoxicity LD50” value in data set [8] was 137.8 ± 1.2 µM.

On to `O=c1cc(CO)occ1O` [Kojic acid, reference compound], for which the IC50 in data set [6] and in data set [7] was above 500 µM in each case. The “Cytotoxicity LD50” value in data set [8] was above 500 µM.
